The values that follow come from patent US8173682B2, “Substituted pyridones as inhibitors of poly(ADP-ribose) polymerase (PARP)” (Aventis Pharmaceuticals Inc., priority 2004, dated 2012).

Counter-ions that a name gives are not always drawn.

In the experiment the target is T1, recombinant human PARP (PARP1) (Homo sapiens, UniProt P09874).
T1 construct: Full length human PARP (PARP1) is assembled from PCR fragments; His6 tag with TEV site, from the pFastBac-HTb vector (own knowledge of the vector); made in house; host or cells: insect cells, baculovirus (Bac-to-Bac, Gibco-BRL)
Kind of experiment: PARP enzyme assay, Method A (radioactivity or 'ELISA' enzyme assay with partially purified enzyme). The class given is biochemical. The note with it: recombinant human PARP preparation, radioactive or ELISA enzyme assay. From the text:
Two different methods are employed in determining the activity of the compounds of this invention in inhibiting the activity of PARP enzyme, designated as Method A and Method B respectively as set forth below.
Method A: Cloning and Expression, and Partial Purification of Recombinant Human PARP:
Full length human PARP (PARP1) is assembled from PCR fragments of a clone from a human brain cDNA library and two Incyte clones. The PARP gene (3046 bp) is sub-cloned into pFastBac-HTb vector to give PARP-pFastBac-HTb and the sequence of this clone is verified. PARP-pFastBac-HTb is expressed to obtain protein using the Bac-to-Bac expression protocol from Gibco-BRL. The recombinant virus generated is used to scale up the material for purification.
Cell pellets from cell broth of cells expressing PARP are treated with a cocktail of protease inhibitors and lysed by 4 freeze-thaw cycles. The material is suspended in 10 mM HEPES/0.1M NaCl/pH 7.2, stirred, and then centrifuged. A 40%-70% ammonium sulfate cut of protein pellet is obtained from the supernatant. The pellet is solubilized in 10 mM HEPES/pH 7.2 and centrifuged. The supernatant buffer is exchanged to 10 mM HEPES/pH 7.2/0.1M NaCl/25% glycerol by dialysis or with a desalting column. The enzyme preparation is stored at −20° C. until use.
The compounds of this invention are then tested with this enzyme preparation using either the radioactive enzyme assay or by the “ELISA” enzyme assay as set forth below.
Radioactivity Enzyme Assay:
Incorporation of radioactivity from labeled NAD into acid-precipitated protein is measured. The reaction mixture (volume 100 μL or 50 μL, in a test-tube or 96-well plate) contained 100 μg/mL calf thymus DNA (sonicated), 100 μg/mL histones, 100 mM Tris (pH 8.0), 1.0 mM DTT, 10 mM MgCl2, NAD (200 μM, 0.65 microcurie/mL), and varying amounts of enzyme. The reaction was incubated for 10 min at 37° C. or at room temperature for 60 min. The reaction was stopped and protein precipitated by addition of ice-cold trichloroacetic acid (TCA; 10% or 20% aqueous w/v). After brief storage in ice or at 4° C. for 2 hrs, the reaction mixture is filtered under vacuum through a glass fiber filter (2.5 cm disc, or 96-well filter plate). After washing with TCA and ethanol, the filter is dried and counted for tritium CPM after addition of scintillation fluid.
Incorporation of biotin-NAD into histone coated on plate is measured. A 96-well protein-binding EIA plate is coated with histone and blocked with bovine serum albumin. The reaction mixture (50 μL) contained DNA, buffer, enzyme, (test compound), and 250 μM of NAD and 5 μL of biotin-NAD (Trevigen). After reaction at room temperature the wells are washed and treated with Extravidin (Sigma). After incubation and washing color is developed with the peroxidase substrate TMB (Sigma). The TMB reaction is quenched with 2M sulfuric acid and the absorbance at 450 nm is read.
(In general: In an ELISA, binding on a coated surface is turned into a signal by an enzyme label.)

T1 sequence (P09874 whole entry, the tested form may be a part): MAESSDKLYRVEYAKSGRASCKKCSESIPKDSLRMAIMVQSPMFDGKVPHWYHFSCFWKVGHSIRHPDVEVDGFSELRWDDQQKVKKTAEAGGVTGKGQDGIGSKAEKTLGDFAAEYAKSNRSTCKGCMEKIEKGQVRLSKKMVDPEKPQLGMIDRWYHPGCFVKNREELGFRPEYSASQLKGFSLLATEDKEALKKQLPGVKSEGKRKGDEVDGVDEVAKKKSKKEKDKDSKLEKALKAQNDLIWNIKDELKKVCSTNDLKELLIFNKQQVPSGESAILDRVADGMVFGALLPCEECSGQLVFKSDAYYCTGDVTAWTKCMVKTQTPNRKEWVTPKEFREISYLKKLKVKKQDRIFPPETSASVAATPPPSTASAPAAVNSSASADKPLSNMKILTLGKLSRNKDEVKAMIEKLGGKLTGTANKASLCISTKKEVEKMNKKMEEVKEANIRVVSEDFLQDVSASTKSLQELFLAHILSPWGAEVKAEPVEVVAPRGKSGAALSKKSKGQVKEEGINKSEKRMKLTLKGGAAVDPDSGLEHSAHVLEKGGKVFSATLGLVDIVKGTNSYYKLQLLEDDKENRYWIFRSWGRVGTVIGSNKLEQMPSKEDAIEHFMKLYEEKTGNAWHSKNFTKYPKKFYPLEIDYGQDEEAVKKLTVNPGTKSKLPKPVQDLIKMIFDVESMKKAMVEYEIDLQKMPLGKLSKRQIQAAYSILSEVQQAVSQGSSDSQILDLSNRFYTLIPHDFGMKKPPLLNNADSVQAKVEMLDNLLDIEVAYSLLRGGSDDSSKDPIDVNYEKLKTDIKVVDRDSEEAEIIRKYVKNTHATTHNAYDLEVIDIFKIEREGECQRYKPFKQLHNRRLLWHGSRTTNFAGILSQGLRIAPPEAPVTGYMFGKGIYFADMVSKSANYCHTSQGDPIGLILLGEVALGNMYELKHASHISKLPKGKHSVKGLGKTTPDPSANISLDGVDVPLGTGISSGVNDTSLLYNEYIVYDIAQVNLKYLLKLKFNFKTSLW

Broadly, the IC50 is the concentration that gives 50% inhibition. Take “5-(5-Ethyl-2-methyl-6-oxo-1,6-dihydropyridin-3-yl)thiophene-2-sulfonic acid (2-1′-[5-(5-ethyl-2-methyl-6-oxo-1,6-dihydropyridin-3-yl)thiophene-2-sulfonyl]-1H-imidazol-4-yl}ethyl)amide hydrochloride [Example 40]”: the IC50 was found to be 0.13 µM.

With `CCc1cc(-c2cccc(C#N)c2)c(C)[nH]c1=O` [Example 1, 3-(5-Ethyl-2-methyl-6-oxo-1,6-dihydropyridin-3-yl)benzonitrile], the IC50 is 0.4 µM.

For the compound `CCc1cc(-c2ccc(CN3CCOCC3)c(C#N)c2)c(C)[nH]c1=O` [Example 2, 5-(5-Ethyl-2-methyl-6-oxo-1,6-dihydropyridin-3-yl)-2-(morpholin-4-yl)methylbenzonitrile], the IC50 turned out to be 4.5 µM.

Take `CCc1cc(-n2nccn2)c(C)[nH]c1=O` [Example 12, 3-Ethyl-6-methyl-5-(1,2,3-triazol-2-yl)-1H-pyridin-2-one]: the IC50 was found to be 1.6 µM.

Turning to `CCc1cc(-n2ccnn2)c(C)[nH]c1=O` [Example 13, 3-Ethyl-6-methyl-5-(1,2,3-triazol-1-yl)-1H-pyridin-2-one], the IC50 is 2.1 µM.

Consider `CCc1cc(-c2nnco2)c(C)[nH]c1=O` [Example 14, 3-Ethyl-6-methyl-5-(1,3,4-oxadiazol-2-yl)-1H-pyridin-2-one], for which the IC50 was 0.56 µM.

As for `CCc1cc(-c2nnc(C)o2)c(C)[nH]c1=O` [Example 15, 3-Ethyl-6-methyl-5-(5-methyl-1,3,4-oxadiazol-2-yl)-1H-pyridin-2-one], the IC50 stood at 0.72 µM.

As to `CCc1cc(-c2nc[nH]n2)c(C)[nH]c1=O` [Example 16, 3-Ethyl-6-methyl-5-(2H-1,2,4-triazol-3-yl)-1H-pyridin-2-one], the IC50 is 0.35 µM.

On to `CCc1cc(-c2ncnn2C)c(C)[nH]c1=O` [Example 17, 3-Ethyl-6-methyl-5-(2-methyl-2H-1,2,4-triazol-3-yl)-1H-pyridin-2-one], for which the IC50 amounted to 1.7 µM.

In the case of `CCc1cc(-c2ncno2)c(C)[nH]c1=O` [Example 18, 3-Ethyl-6-methyl-5-(1,2,4-oxadiazol-5-yl)-1H-pyridin-2-one], the IC50 was found to be 0.65 µM.

As to `CCc1cc(-c2nc(C)no2)c(C)[nH]c1=O` [Example 19, 3-Ethyl-6-methyl-5-(3-methyl-1,2,4-oxadiazol-5-yl)-1H-pyridin-2-one], the IC50 stood at 0.23 µM.

Consider `CCc1cc(-c2nc(C)nn2C)c(C)[nH]c1=O` [Example 20, 5-(2,5-Dimethyl-2H-1,2,4-triazol-3-yl)-3-ethyl-6-methyl-1H-pyridin-2-one], for which the IC50 is 1.1 µM.

On to `CCc1cc(-c2n[nH]c(C)n2)c(C)[nH]c1=O` [Example 21, 3-Ethyl-6-methyl-5-(5-methyl-2H-1,2,4-triazol-3-yl)-1H-pyridin-2-one], for which the IC50 was found to be 0.17 µM.

With `CCc1cc(-c2ncon2)c(C)[nH]c1=O` [Example 23, 3-Ethyl-6-methyl-5-(1,2,4-oxadiazol-3-yl)-1H-pyridin-2-one], the IC50 stood at 0.67 µM.

In the case of `CCc1cc(-c2ccc(S(=O)(=O)N3CCN(c4ccccc4)CC3)s2)c(C)[nH]c1=O` [Example 24, 3-Ethyl-6-methyl-5-[5-(4-phenylpiperazine-1-sulfonyl)thiophen-2-yl]-1H-pyridin-2-one], the IC50 amounted to 0.63 µM.

As for `CCc1cc(-c2ccc(S(=O)(=O)N(C)C)s2)c(C)[nH]c1=O` [Example 28, 5-(5-Ethyl-2-methyl-6-oxo-1,6-dihydropyridin-3-yl)thiophene-2-sulfonic acid dimethylamide], the IC50 was 0.72 µM.

For the compound `CCc1cc(-c2ccc(S(=O)(=O)N(C)Cc3cc(F)cc(F)c3)s2)c(C)[nH]c1=O` [Example 29, 5-(5-Ethyl-2-methyl-6-oxo-1,6-dihydropyridin-3-yl)thiophene-2-sulfonic acid (3,5-difluorobenzyl)methylamide], the IC50 was 0.57 µM.

For the compound `CCc1cc(-c2ccc(S(=O)(=O)NCCCN3CCC(O)C3)s2)c(C)[nH]c1=O` (stereo not drawn) [Example 30, 5-(5-Ethyl-2-methyl-6-oxo-1,6-dihydro-pyridin-3-yl)-thiophene-2-sulfonic acid [3-(3-hydroxy-pyrrolidin-1-yl)-propyl]-amide hydrochloride], the IC50 came out at 10 µM.

For `CCc1cc(-c2ccc(S(=O)(=O)NCCNc3ccccc3)s2)c(C)[nH]c1=O` [Example 32, 5-(5-Ethyl-2-methyl-6-oxo-1,6-dihydropyridin-3-yl)thiophene-2-sulfonic acid 2-phenylaminoethylamide hydrochloride], the IC50 turned out to be 2.9 µM.

In the case of `CCc1cc(-c2ccc(S(=O)(=O)NCCOC)s2)c(C)[nH]c1=O` [Example 33, 5-(5-Ethyl-2-methyl-6-oxo-1,6-dihydropyridin-3-yl)thiophene-2-sulfonic acid (2-methoxyethyl)amide], the IC50 stood at 10.5 µM.

With `CCc1cc(-c2ccc(S(=O)(=O)NCCCN(C)C)s2)c(C)[nH]c1=O` [Example 34, 5-(5-Ethyl-2-methyl-6-oxo-1,6-dihydropyridin-3-yl)thiophene-2-sulfonic acid (3-dimethylaminopropyl)amide hydrochloride], the IC50 was found to be 4.5 µM.

With `CCc1cc(-c2ccc(S(=O)(=O)NCc3ccc(C)o3)s2)c(C)[nH]c1=O` [Example 35, 5-(5-Ethyl-2-methyl-6-oxo-1,6-dihydropyridin-3-yl)thiophene-2-sulfonic acid (5-methylfuran-2-yl)methylamide], the IC50 stood at 10.9 µM.

Regarding `CCc1cc(-c2ccc(S(=O)(=O)NCCC3CCCN3C)s2)c(C)[nH]c1=O` (stereo not drawn) [Example 36, 5-(5-Ethyl-2-methyl-6-oxo-1,6-dihydropyridin-3-yl)thiophene-2-sulfonic Acid [2-(1-methylpyrrolidin-2-yl)ethyl]amide hydrochloride], the IC50 came out at 3.7 µM.

For `CCc1cc(-c2ccc(S(=O)(=O)N(C)CC(O)c3ccccc3)s2)c(C)[nH]c1=O` (stereo not drawn) [Example 37, 5-(5-Ethyl-2-methyl-6-oxo-1,6-dihydropyridin-3-yl)thiophene-2-sulfonic acid (2-hydroxy-2-phenylethyl)methylamide], the IC50 turned out to be 2 µM.

On to `CCc1cc(-c2ccc(S(=O)(=O)NCCN3CCOCC3)s2)c(C)[nH]c1=O` [Example 38, 5-(5-Ethyl-2-methyl-6-oxo-1,6-dihydropyridin-3-yl)thiophene-2-sulfonic acid (2-morpholin-4-yl)ethylamide hydrochloride], for which the IC50 amounted to 0.77 µM.

As for `CCc1cc(-c2ccc(S(=O)(=O)NCC3CCN(C(=O)OC(C)(C)C)CC3)s2)c(C)[nH]c1=O` [Example 41-1, 5-(5-Ethyl-2-methyl-6-oxo-1,6-dihydropyridin-3-yl)thiophene-2-sulfonic acid (1-tert-butyloxycarbonylpiperidin-4-yl)methylamide], the IC50 was determined as 1.5 µM.

Take `CCc1cc(-c2ccc(S(=O)(=O)NCC3CCNCC3)s2)c(C)[nH]c1=O` [Example 41-2, 5-[5-Ethyl-2-methyl-6-oxo-(1,6-dihydropyridin-3-yl)]thiophene-2-sulfonic acid (piperidin-4-yl)methylamide hydrochloride]: the IC50 stood at 0.52 µM.

On to `CCc1cc(-c2ccc(S(=O)(=O)N3CCN(c4ccncc4)CC3)o2)c(C)[nH]c1=O` [Example 45, 3-Ethyl-6-methyl-5-{5-[(4-pyridin-4-yl)piperazine-1-sulfonyl]furan-2-yl}-1H-pyridin-2-one hydrochloride], for which the IC50 is 0.22 µM.

Take `CCc1cc(-c2ccc(S(=O)(=O)NC3CCN(Cc4ccccc4)CC3)o2)c(C)[nH]c1=O` [Example 46, 5-(5-Ethyl-2-methyl-6-oxo-1,6-dihydropyridin-3-yl)furan-2-sulfonic acid (1-benzylpiperidin-4-yl)amide hydrochloride]: the IC50 stood at 0.46 µM.

Regarding `CCc1cc(-c2ccc(S(=O)(=O)NCCN3CCOCC3)o2)c(C)[nH]c1=O` [Example 47, 5-(5-Ethyl-2-methyl-6-oxo-1,6-dihydropyridin-3-yl)furan-2-sulfonic acid (2-morpholin-4-yl)ethylamide hydrochloride], the IC50 turned out to be 0.89 µM.
